The subject of data set [1] is healthy dogs undergoing TPLO surgery. Briefly: Clinical observations during RTX instillation under general anesthesia and recovery. Format: in vivo, dog. An excerpt: This example provides safety data related to the tolerability of RTX administered as a nerve block pre-surgically and as a local application on the surgical site intraoperatively in healthy dogs undergoing tibial plateau levelling osteotomy (TPLO). Pharmacological behavior of RTX after a perineural injection and local application in the hindlimb and the long-term effects on bone healing was also observed.
Fourteen adult female beagle dogs, weighing 11.9±0.6 kg and between 3-5 years of age, were enrolled in this study. Each animal was randomly assigned to one of four groups. Four dogs (group 1) received a femoral and sciatic nerve block with 12.5 μg RTX per nerve (25 μg RTX total) diluted with sterile saline for a total volume of 2 mL (half volume per block). Another four dogs (group 2) received a femoral and a sciatic nerve block with 3.12 μg RTX per nerve block (6.25 μg RTX total) diluted with sterile saline for a total volume of 2 mL (half volume per block). Group 3 (4 animals) received a femoral and sciatic nerve block with 5 mg bupivacaine total (standard of care) plus a total of 50 μg RTX (total volume of 4 mL, concentration 12.5 μg/mL) applied locally to the cut on the tibia for 10 min. Group 4 (2 animals) was the control group and received a femoral and a sciatic nerve block with 5 mg bupivacaine total (standard of care).
Dogs were sedated and anesthetized using standard protocols and following the American College of Veterinary Analgesia and Anesthesia guidelines. A physical exam was performed prior to surgery and a complete blood count and chemistry profile were submitted. Food was withheld for 8-10 hours before surgery and offered again 4-6 hours after recovery from anesthesia.
Diphenhydramine (2.2 mg/kg) was given IM after induction. The peripheral IV catheter was used for administration of fluid (Lactate Ringer's solution (LRS) at 5 mL/kg/h), and intraoperative drugs when necessary (hydromorphone and/or ketamine and/or dexmedetomidine for analgesia, atropine in case of bradycardia, dopamine or dobutamine in case of hypotension). Cefazolin 22 mg/kg was administered intravenously prior to surgery and every 60-90 minutes during surgery.
Femoral and sciatic nerve blocks with RTX or bupivacaine were performed after induction of general anesthesia, and followed by surgery (TPLO). RTX was administered at least 15 minutes prior to any cut made to the bone. Dogs in group 3 received RTX during surgery via direct application on the bone.
At the end of surgery, animals were allowed to recover. Following extubation, animals were supervised until able to stand and walk steadily, then monitored for the first 4 hours following the procedure. Food and water were given at 4-6 hours if recovery was smooth and uneventful. All subjects received oral carprofen 2.2 mg/kg twice a day for 10 days and trazodone 5-7 mg/kg twice a day, until the end of the study.
Perineural injections (femoral and sciatic nerve block) of RTX were performed before surgery under general anesthesia and application of RTX over the bone incision was done during the surgical procedure. The nerve blocks were applied at after administration of anesthesia and least 15 minutes before surgery.
For the perineural injections, the animal was placed in right lateral recumbency and the lateral and medial aspects of proximal area of the left hindlimb were clipped and prepared using an aseptic technique. A caudal approach was used for the sciatic nerve block. The ultrasound transducer was placed over the lateral aspect of the biceps femoris, just distal to the greater trochanter and oriented craniocaudally. After obtaining a short axis view of the sciatic nerve, a sheathed needle for electrolocation was inserted caudally in-plane with the ultrasound transducer until the tip of the needle reached the nerve. The correct location of the needle was confirmed by a positive response (twitches of the leg) after activation of the nerve locator using a current of 0.3-0.5 mA. […]

Data set [2] deals with stifle of dogs after TPLO. In words: Radiographic, CT and MRI evaluation of bone healing. The following applies: for Pattern of healing N (no findings), No. of Dogs / Pattern of healing S (soft tissue swelling with normal bone healing), No. of Dogs / Pattern of healing S&B (soft tissue swelling and delayed bone healing), No. of Dogs: 4 dogs. The class given is in vivo, dog. As for the experimental part:
Radiographs of the stifle were performed before surgery, the day after surgery, at day 28, and at day 56. Dogs were sedated to allow for correct positioning of the leg and to minimize stress from handling. Standardized TPLO views (lateral and caudal-cranial) were acquired. An MRI and CT were also performed on the operated leg after the animals were euthanized and the surgical plate was removed (day 56).
Orthogonal plane radiographs of the stifle were obtained for all dogs at all timepoints. After euthanasia, CT was obtained in 11 of the 14 dogs and MRI in all dogs. Metal artifact due to the presence of a broken screw prevented the evaluation of one MR study. Soft tissues could not be reliably assessed due to disruption secondary to removal of the plate. There was no evidence of implant failure or suboptimal osteotomy repair in any dog. Upon review of all imaging modalities, three patterns of healing emerged (Table 9a).
The delay of bone healing refers to a slower bone healing process as compared to the findings in the rest of the dogs in this study. This is not to be considered as an absolute delayed bone healing since the dogs were only enrolled in the study for 56 days

The structures appear in SMILES notation.

This note sets out measurements from US20240261258A1, “Presurgical Perineural Administration of Resiniferatoxin For Reduction of Post-Operative Pain” (Sorrento Therapeutics, Inc., priority 2021, published 2024).

For the molecule `C=C(C)[C@]12C[C@@H](C)[C@@]34O[C@](Cc5ccccc5)(O[C@@H]1[C@@H]3C=C(COC(=O)Cc1ccc(O)c(OC)c1)C[C@]1(O)C(=O)C(C)=C[C@@H]41)O2` [RTX, resiniferatoxin], the “Dogs that required dobutamine to treat hypotension” value in data set [1] (Group 1 (4 dogs), after RTX administration) was “None”; in data set [1] (Group 2 (4 dogs), after RTX administration), “one”; in data set [1] (Group 3 (4 dogs)) it was “two”. Moreover, the “Dogs given dexmedetomidine IV to treat dysphoria immediately after extubation” value in data set [1] (Group 2) and in data set [1] (Group 3) was “one” in each case. In addition, in data set [1] (Group 2), the “Dogs given naloxone IV due to prolonged recovery” value is on record as “One”. In addition, in data set [1] (Subject 2968 (group 1), from 60 mmHg, 100 minutes after RTX, leg stretched during aseptic preparation), the “Mean blood pressure after increase” value is on record as 172 mmHg. For the same molecule, the “Heart rate after increase” value in data set [1] (Subject 2968 (group 1), from 90 bpm, 100 minutes after RTX, leg stretched during aseptic preparation) amounted to 168 bpm. Also, the Tolerability result in data set [1] (all RTX treatments: nerve block 6.25 μg and 25 μg total, local gauze loaded with 50 μg) is “well tolerated”. Further, the “Change in heart rate and blood pressure” value in data set [1] (approximately 15 to 25 minutes after RTX administration, group 1 and 2 subjects) is “mild to moderate increase”. Also, the “Respiratory observation after extubation” value in data set [1] (dogs in group 1 and 2) is given as “polypnea”. Also, the “Body temperature to which dogs decreased before polypnea ended” value in data set [1] (dogs in group 1 and 2, after extubation) is 94-95 ° F. In addition, the “Duration of decrease in body temperature after the treatment” value in data set [1] (some dogs of groups 1 and 2, clinically acted normally) is given as “up to 3 days”. The Persistence of hypothermia result in data set [1] (three subjects of group 1 (0271, 2968, 5635), without any clinical signs) was “over 24 hours”. Besides, the “Pattern of healing N (no findings), No. of Dogs” value turned out to be 1 in data set [2] (Group 1 (high dose)), 2 in data set [2] (Group 2 (low dose)) and 1 in data set [2] (Group 3 (local)). Besides, the “Pattern of healing S (soft tissue swelling with normal bone healing), No. of Dogs” value is 2 in data set [2] (Group 1 (high dose)), 1 in data set [2] (Group 2 (low dose)) and 1 in data set [2] (Group 3 (local)). Moreover, the “Pattern of healing S&B (soft tissue swelling and delayed bone healing), No. of Dogs” value in data set [2] (Group 1 (high dose)) worked out at 1; in data set [2] (Group 2 (low dose)) it was 1; in data set [2] (Group 3 (local)), 2. In data set [2] (distribution of healing patterns among the treatment groups), the “Effect on the bone healing process” value is “did not adversely affect the bone healing process”.
